In patent publication EP1582519A2, “Heteropolycyclic compounds and their use as metabotropic glutamate receptor antagonists” (NPS PHARMACEUTICALS, INC., priority 1999, dated 2001):

Target: native receptor, mGluR5d (Rattus norvegicus, UniProt P31424)
Assay: Antagonist activity on the native receptor mGluR5d
Assay type: cell-based
Experimental: Primary astrocyte cultures were prepared from 3-5 day old Sprague-Dawley rat pups using a modification of Miller (Miller et al, J. Neuroscience, 15(9): 6103-6109, 1995). In brief, primary cultures were plated on poly-L lysine coated flasks in Dulbecco's modified Eagle's medium (DMEM) containing fetal calf serum (FCS). After 6 days, cell cultures were shaken over night at 280 rpm, then transferred to astrocyte-defined media (ADM) containing growth factors that up-regulate the expression of mGluR5 (Miller et al., 1995). […] For FLIPR analysis, cells were seeded on poly-D lysine coated clear bottom 96-well plates with black sides and analysis of [Ca^2+]i mobilization was performed 3 days following the growth factor up-regulation. Cell cultures in the 96-well plates were loaded with a 4 µM solution of acetoxymethyl ester form of the fluorescent calcium indicator fluo-3 (Molecular Probes, Eugene, Oregon) in 0.01 % pluronic. All assays were performed in a buffer containing 127 mM NaCl, 5 mM KCl, 2 mM MgCl2, 0.7 mM NaH2PO4, 2 mM CaCl2, 0.422 mg/ml NaHCO3, 2.4 mg/ml HEPES, 1.8 mg/ml glucose and 1 mg/ml BSA Fraction IV (pH 7.4). […] After each addition the fluorescence signal was sampled 50 times at 1 second intervals followed by 3 samples at 5 second intervals. Responses were measured as the peak height of the response within the sample period. […]

native receptor, mGluR5d, sequence (P31424 21-1203): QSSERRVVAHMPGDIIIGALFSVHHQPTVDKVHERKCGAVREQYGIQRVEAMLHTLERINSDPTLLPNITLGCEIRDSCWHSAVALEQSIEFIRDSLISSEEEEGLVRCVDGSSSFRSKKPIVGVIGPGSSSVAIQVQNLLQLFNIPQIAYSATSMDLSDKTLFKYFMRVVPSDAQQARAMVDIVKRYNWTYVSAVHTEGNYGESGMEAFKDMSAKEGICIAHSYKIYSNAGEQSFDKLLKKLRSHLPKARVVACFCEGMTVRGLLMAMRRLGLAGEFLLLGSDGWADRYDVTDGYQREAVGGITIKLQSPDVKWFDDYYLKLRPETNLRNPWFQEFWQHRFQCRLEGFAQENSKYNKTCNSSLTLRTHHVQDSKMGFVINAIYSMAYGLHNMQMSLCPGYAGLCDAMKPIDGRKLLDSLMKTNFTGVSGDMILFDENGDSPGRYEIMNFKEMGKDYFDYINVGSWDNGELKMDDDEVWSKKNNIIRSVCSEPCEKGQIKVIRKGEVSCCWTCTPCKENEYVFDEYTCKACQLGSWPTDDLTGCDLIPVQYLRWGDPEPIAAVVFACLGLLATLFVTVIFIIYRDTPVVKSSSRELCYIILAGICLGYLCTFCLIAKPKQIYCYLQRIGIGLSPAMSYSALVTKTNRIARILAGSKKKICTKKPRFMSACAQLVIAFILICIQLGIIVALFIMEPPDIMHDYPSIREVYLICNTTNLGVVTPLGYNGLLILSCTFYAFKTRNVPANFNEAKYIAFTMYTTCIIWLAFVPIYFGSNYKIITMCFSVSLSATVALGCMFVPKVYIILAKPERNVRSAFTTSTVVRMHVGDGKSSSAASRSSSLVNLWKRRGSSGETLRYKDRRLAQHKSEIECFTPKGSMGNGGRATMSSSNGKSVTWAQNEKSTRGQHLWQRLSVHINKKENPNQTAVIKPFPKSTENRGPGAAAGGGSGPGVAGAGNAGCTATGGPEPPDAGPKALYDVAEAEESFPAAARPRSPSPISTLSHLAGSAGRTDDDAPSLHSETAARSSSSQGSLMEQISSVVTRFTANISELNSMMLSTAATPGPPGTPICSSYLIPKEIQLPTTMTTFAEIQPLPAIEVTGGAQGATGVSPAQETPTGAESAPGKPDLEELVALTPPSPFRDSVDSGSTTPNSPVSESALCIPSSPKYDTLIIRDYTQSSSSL

Row | Structure (SMILES) | IC50 [nM]
1 | N#Cc1cccc(-c2nc(-c3ccccn3)no2)c1 [B21, 3-(2-pyridyl)-5-(3-cyanophenyl)-1,2,4-oxadiazole] | 121
2 | N#Cc1cccc(-c2nc(-c3ccccn3)co2)c1 [B52, 2-[3-cyanophenyl]-4-[pyridin-2-yl]-1,3-oxazole] | 74
